The values below come from EP4752152A1, “STEROID COMPOUND, AND PREPARATION METHOD THEREFOR AND USE THEREOF” (Cholesgen (Shanghai) Co.Ltd., priority 2023, dated 2025).

For the first assay, the system named is SREBP pathway. The assay can be described thus: SREBP luciferase reporter gene system (SRE-luciferase assay). It is filed as cell-based, human. Particulars: Homo sapiens, Huh-7, 16 h, Huh-7/SRE-luc cells, sterol-deficient medium, 0.01-10 µM. Here is the method: Huh-7/SRE-luc cells were incubated in sterol-deficient medium (5% lipoprotein deficient serum, 2 µM lovastatin, 10 µM mevalonic acid) with corresponding concentrations of compounds for 16 hours. The Huh-7/SRE-luc cells were human hepatoma cell line Huh-7 stably expressing LDLR promotor-luciferase and green fluorescent protein (GFP). These cells were obtained by transfecting Huh-7 with pLDLR-promotor-luciferase and pEGFP-N1 plasmids, followed by screening under G418 antibiotic selection pressure. The Huh-7 cells were purchased from ATCC, the pLDLR-promotor-luciferase plasmid was obtained by molecular cloning methods, and the pEGFP-N1 plasmid was purchased from Addgene.
After compound treatment, the cells were lysed with lysis buffer (E397A, Promega). After the addition of luciferase substrate (E1500, Promega), the activity of SRE-driven luciferase was measured using a BioTek Synergy HTX microplate reader (including but not limited to this type of instrument). The fluorescence intensity of green fluorescent protein (EGFP) was also measured using the above BioTek microplate reader (including but not limited to this type of instrument) and served as an internal control. The ratio of SRE-driven luciferase activity divided by the fluorescence intensity of green fluorescent protein was used as an indicator of SREBP pathway activity. The test data for each test compound were analyzed using Prism software (with the DMSO-treated group as the reference to calculate the compound inhibition rate, fitted using the Prism log(inhibitor) vs. response--Variable slope (four-parameter) model, calculation formula: Y = Bottom + (Top - Bottom)/(1 + 10^((LogIC50 - X) × HillSlope))), to obtain the IC50 parameters of the compounds.
Using the method described in 1.1, the inhibitory effect of the compounds of the present disclosure on the SREBP pathway was tested. The concentration gradient for each compound was designed as 0.01, 0.03, 0.1, 0.3, 1.0, 3.0, and 10 µM, with the vehicle DMSO as the control.
Background: Reporter assays use an easily measured gene product as a stand-in for the process of interest.
Turning to `C[C@H](CCC[C@H](O)c1nc2ccccc2n1C)[C@H]1CC[C@H]2[C@H]3[C@H](CC[C@]12C)[C@@]1(C)CC[C@H](O)[C@H](O)[C@@H]1CC3(F)F` [Compound 306, (1R,3aS,3bS,5aR,6R,7S,9aR,9bS,11aR)-4,4-difluoro-1-[(2R,6S)-6-hydroxy-6-(1-methylbenzo[d]imidazol-2-yl)hexan-2-yl]-9a,11a-dimethylhexadecahydro-1H-cyclopenta[1,2-a]phenanthrene-6,7-diol], the concentration for half-maximal inhibition (IC50) was 0.121 µM.

With `COc1cncc(F)c1C(O)CCC[C@@H](C)[C@H]1CC[C@H]2[C@H]3[C@H](CC[C@]12C)[C@@]1(C)CC[C@H](O)[C@H](O)[C@@H]1CC3(F)F` (single isomer, unassigned) [Compound 251, (1R,3aS,3bS,5aR,6R,7S,9aR,9bS,11aR)-4,4-difluoro-1-[(2R,6S)-6-(3-fluoro-5-methoxypyridin-4-yl)-6-hydroxyhexan-2-yl]-9a,11a-dimethylhexadecahydro-1H-cyclopenta[1,2-a]phenanthrene-6,7-diol or (1R,3aS,3bS,5aR,6R,7S,9aR,9bS,11aR)-4,4-difluoro-1-[(2R,6R)-6-(3-fluoro-5-methoxypyridin-4-yl)-6-hydroxyhexan-2-yl]-9a,11a-dimethylhexadecahydro-1H-cyclopenta[1,2-a]phenanthrene-6,7-diol], the IC50 was 0.042 µM.

In the case of `COc1cccc(F)c1[C@H](O)CCC[C@@H](C)[C@H]1CC[C@H]2[C@H]3[C@H](CC[C@]12C)[C@@]1(C)CC[C@H](O)C[C@@H]1CC3(F)F` (single isomer, unassigned) [Compound 315], the IC50 is 0.125 µM.

Take `COc1cc(F)ccc1C(N)CCC[C@@H](C)[C@H]1CC[C@H]2[C@H]3[C@H](CC[C@]12C)[C@@]1(C)CC[C@H](O)[C@H](O)[C@@H]1CC3(F)F` (stereo partly drawn) [Compound 156, (1R,3aS,3bS,5aR,6R,7S,9aR,9bS,11aR)-1-[(2R)-6-amino-6-(4-fluoro-2-methoxyphenyl)hexan-2-yl]-4,4-difluoro-9a,11a-dimethylhexadecahydro-1H-cyclopenta[1,2-a]phenanthrene-6,7-diol]: the IC50 was determined as 1.32 µM.

Take `COc1cc(C(O)CCC[C@@H](C)[C@H]2CC[C@H]3[C@H]4[C@H](CC[C@]23C)[C@@]2(C)CC[C@H](O)[C@H](O)[C@@H]2CC4(F)F)cc(F)n1` (single isomer, unassigned) [Compound 247, (1R,3aS,3bS,5aR,6R,7S,9aR,9bS,11aR)-4,4-difluoro-1-[(2R,6S)-6-(6-fluoro-2-methoxypyridin-4-yl)-6-hydroxyhexan-2-yl]-9a,11a-dimethylhexadecahydro-1H-cyclopenta[1,2-a]phenanthrene-6,7-diol or (1R,3aS,3bS,5aR,6R,7S,9aR,9bS,11aR)-4,4-difluoro-1-[(2R,6R)-6-(6-fluoro-2-methoxypyridin-4-yl)-6-hydroxyhexan-2-yl]-9a,11a-dimethylhexadecahydro-1H-cyclopenta[1,2-a]phenanthrene-6,7-diol]: the IC50 came to 0.04 µM.

For `COc1c(F)cccc1C(O)CCC[C@@H](C)[C@H]1CC[C@H]2C3=C(F)C[C@H]4[C@@H](O)[C@@H](O)CC[C@]4(C)[C@H]3CC[C@]12C` (stereo partly drawn) [Compound 48, (1R,3aR,5aR,6R,7S,9aR,9bR,11aR)-4-fluoro-1-[(2R)-6-(3-fluoro-2-methoxyphenyl)-6-hydroxyhexan-2-yl]-9a,11a-dimethyl-2,3,3a,5,5a,6,7,8,9,9a,9b,10,11,11a-tetradecahydro-1H-cyclopenta[1,2-a]phenanthrene-6,7-diol], the IC50 came to 0.203 µM.

Take `COc1nc(F)ccc1[C@@H](O)CCC[C@@H](C)[C@H]1CC[C@H]2[C@H]3[C@H](CC[C@]12C)[C@@]1(C)CC[C@H](O)C[C@@H]1CC3(F)F` [Compound 312, (1R,3aS,3bR,5aR,7S,9aS,9bS,11aR)-4,4-difluoro-1-[(2R,6S)-6-(6-fluoro-2-methoxypyridin-3-yl)-6-hydroxyhexan-2-yl]-9a,11a-dimethylhexadecahydro-1H-cyclopenta[1,2-a]phenanthren-7-ol]: the IC50 was determined as 0.276 µM.

With `C[C@H](CCCC(O)c1cccc2c1nnn2C)[C@H]1CC[C@H]2[C@H]3[C@H](CC[C@]12C)[C@@]1(C)CC[C@H](O)[C@H](O)[C@@H]1CC3(F)F` (single isomer, unassigned) [Compound 290, (1R,3aS,3bS,5aR,6R,7S,9aR,9bS,11aR)-4,4-difluoro-1-[(2R,6S)-6-hydroxy-6-(1-methylbenzo[d][1,2,3]triazol-4-yl)hexan-2-yl]-9a,11a-dimethylhexadecahydro-1H-cyclopenta[1,2-a]phenanthrene-6,7-diol or (1R,3aS,3bS,5aR,6R,7S,9aR,9bS,11aR)-4,4-difluoro-1-[(2R,6R)-6-hydroxy-6-(1-methylbenzo[d][1,2,3]triazol-4-yl)hexan-2-yl]-9a,11a-dimethylhexadecahydro-1H-cyclopenta[1,2-a]phenanthrene-6,7-diol], the 50% inhibitory concentration (IC50) was 0.137 µM.

Regarding `C[C@H](CCCC(O)c1ccccc1F)[C@H]1CC[C@H]2C3=C(F)C[C@H]4[C@@H](O)[C@@H](O)CC[C@]4(C)[C@H]3CC[C@]12C` (stereo partly drawn) [Compound 4, (1R,3aR,5aR,6R,7S,9aR,9bR,11aR)-4-fluoro-1-[(2R)-6-(2-fluorophenyl)-6-hydroxyhexan-2-yl]-9a,11a-dimethyl-2,3,3a,5,5a,6,7,8,9,9a,9b,10,11,11a-tetradecahydro-1H-cyclopenta[1,2-a]phenanthrene-6,7-diol], the half-maximal inhibitory concentration (IC50) was 0.09 µM.

For `C[C@H](CCC[C@@H](O)c1n[nH]c2ccccc12)[C@H]1CC[C@H]2[C@H]3[C@H](CC[C@]12C)[C@@]1(C)CC[C@H](O)[C@H](O)[C@@H]1CC3(F)F` (stereo in doubt) [Compound 320, (1R,3aS,3bS,5aR,6R,7S,9aR,9bS,11aR)-4,4-difluoro-1-[(2R,6R)-6-hydroxy-6-(1H-indazol-3-yl)hexan-2-yl]-9a,11a-dimethylhexadecahydro-1H-cyclopenta[1,2-a]phenanthrene-6,7-diol], the IC50 turned out to be 0.207 µM.

With `COc1nc(F)ccc1[C@@H](O)CC[C@@H](C)[C@H]1CC[C@H]2C3=C(F)C[C@H]4[C@@H](O)[C@@H](O)CC[C@]4(C)[C@H]3CC[C@]12C` [Compound 339, (1R,3aR,5aR,6R,7S,9aR,9bR,11aR)-4-fluoro-1-[(2R,5S)-5-(6-fluoro-2-methoxypyridin-3-yl)-5-hydroxypentan-2-yl]-9a,11a-dimethyl-2,3,3a,5,5a,6,7,8,9,9a,9b,10,11,11a-tetradecahydro-1H-cyclopenta[1,2-a]phenanthrene-6,7-diol], the IC50 was determined as 0.143 µM.

Regarding `C[C@H](CCC[C@@H](O)c1nnnn1C)[C@H]1CC[C@H]2[C@H]3[C@H](CC[C@]12C)[C@@]1(C)CC[C@H](O)C[C@@H]1CC3(F)F` (single isomer, unassigned) [Compound 381], the 50% inhibitory concentration (IC50) turned out to be 0.285 µM.

Still in this assay, the particulars now being: Huh-7/SRE-luc cells, sterol-deficient medium, 16 hours, 0.01-10 µM.
Consider `C[C@H](CCC[C@H](O)c1cc2ccccc2o1)[C@H]1CC[C@H]2[C@H]3[C@H](CC[C@]12C)[C@@]1(C)CC[C@H](O)[C@H](O)[C@@H]1CC3(F)F` [Compound 321, (1R,3aS,3bS,5aR,6R,7S,9aR,9bS,11aR)-1-[(2R,6S)-6-(1-benzofuran-2-yl)-6-hydroxyhexan-2-yl]-4,4-difluoro-9a,11a-dimethylhexadecahydro-1H-cyclopenta[1,2-a]phenanthrene-6,7-diol], for which the IC50 turned out to be 0.114 µM.

On to `C[C@H](CCCC(O)c1cccc2[nH]ncc12)[C@H]1CC[C@H]2[C@H]3[C@H](CC[C@]12C)[C@@]1(C)CC[C@H](O)[C@H](O)[C@@H]1CC3(F)F` (single isomer, unassigned) [Compound 274, (1R,3aS,3bS,5aR,6R,7S,9aR,9bS,11aR)-4,4-difluoro-1-[(2R,6R)-6-hydroxy-6-(1H-indazol-4-yl)hexan-2-yl]-9a,11a-dimethylhexadecahydro-1H-cyclopenta[1,2-a]phenanthrene-6,7-diol or (1R,3aS,3bS,5aR,6R,7S,9aR,9bS,11aR)-4,4-difluoro-1-[(2R,6S)-6-hydroxy-6-(1H-indazol-4-yl)hexan-2-yl]-9a,11a-dimethylhexadecahydro-1H-cyclopenta[1,2-a]phenanthrene-6,7-diol], for which the IC50 came to 0.758 µM.

Turning to `C[C@H](CCCC(O)c1cccc2[nH]ncc12)[C@H]1CC[C@H]2[C@H]3[C@H](CC[C@]12C)[C@@]1(C)CC[C@H](O)[C@H](O)[C@@H]1CC3(F)F` (single isomer, unassigned) [Compound 273, (1R,3aS,3bS,5aR,6R,7S,9aR,9bS,11aR)-4,4-difluoro-1-[(2R,6S)-6-hydroxy-6-(1H-indazol-4-yl)hexan-2-yl]-9a,11a-dimethylhexadecahydro-1H-cyclopenta[1,2-a]phenanthrene-6,7-diol or (1R,3aS,3bS,5aR,6R,7S,9aR,9bS,11aR)-4,4-difluoro-1-[(2R,6R)-6-hydroxy-6-(1H-indazol-4-yl)hexan-2-yl]-9a,11a-dimethylhexadecahydro-1H-cyclopenta[1,2-a]phenanthrene-6,7-diol], the 50% inhibitory concentration (IC50) was 0.361 µM.

As usually defined, the IC50 is the midpoint of a concentration-inhibition curve.
